Test results: patent US11767310B2, “Nicotinamide RIPK1 inhibitors” (AbbVie Inc., priority 2021, dated 2023)
Where two headings read alike, the source gives them in different places.

Experiments:
Assay in all cases: Kinase binding screen
Settings in all cases: read-out: Percent Control at 100 nM Compound Concentration
PIK3CA(E542K) = PIK3CA(E542K) (Homo sapiens (Human), UniProt P42336, E542K)
MEK2 = MEK2 (Homo sapiens (Human), UniProt P36507)
FLT1 = FLT1 (Homo sapiens (Human), UniProt P17948)
TEC = TEC (Homo sapiens (Human), UniProt P42680)
TNK1 = TNK1 (Homo sapiens (Human), UniProt Q13470)
Chain of TNK1 (Q13470 whole entry): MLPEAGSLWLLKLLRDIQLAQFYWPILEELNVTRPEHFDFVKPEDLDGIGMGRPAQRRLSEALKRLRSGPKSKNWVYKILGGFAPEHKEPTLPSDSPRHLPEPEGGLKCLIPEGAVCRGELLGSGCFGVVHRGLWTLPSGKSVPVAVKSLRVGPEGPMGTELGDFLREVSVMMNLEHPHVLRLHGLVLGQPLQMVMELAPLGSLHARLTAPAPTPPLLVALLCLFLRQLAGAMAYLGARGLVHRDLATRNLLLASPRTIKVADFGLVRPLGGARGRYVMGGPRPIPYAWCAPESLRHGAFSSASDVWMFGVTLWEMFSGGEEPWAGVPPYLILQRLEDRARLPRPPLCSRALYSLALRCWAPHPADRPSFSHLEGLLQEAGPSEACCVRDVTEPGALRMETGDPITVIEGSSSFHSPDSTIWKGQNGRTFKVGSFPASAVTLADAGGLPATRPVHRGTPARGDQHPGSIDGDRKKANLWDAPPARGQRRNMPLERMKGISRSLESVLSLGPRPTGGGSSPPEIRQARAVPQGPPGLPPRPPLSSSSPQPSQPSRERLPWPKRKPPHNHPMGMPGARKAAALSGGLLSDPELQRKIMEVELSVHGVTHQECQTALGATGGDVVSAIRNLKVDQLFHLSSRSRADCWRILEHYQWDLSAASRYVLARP

GRK3 = GRK3 (Homo sapiens (Human), UniProt P35626)
Chain of GRK3 (P35626 whole entry): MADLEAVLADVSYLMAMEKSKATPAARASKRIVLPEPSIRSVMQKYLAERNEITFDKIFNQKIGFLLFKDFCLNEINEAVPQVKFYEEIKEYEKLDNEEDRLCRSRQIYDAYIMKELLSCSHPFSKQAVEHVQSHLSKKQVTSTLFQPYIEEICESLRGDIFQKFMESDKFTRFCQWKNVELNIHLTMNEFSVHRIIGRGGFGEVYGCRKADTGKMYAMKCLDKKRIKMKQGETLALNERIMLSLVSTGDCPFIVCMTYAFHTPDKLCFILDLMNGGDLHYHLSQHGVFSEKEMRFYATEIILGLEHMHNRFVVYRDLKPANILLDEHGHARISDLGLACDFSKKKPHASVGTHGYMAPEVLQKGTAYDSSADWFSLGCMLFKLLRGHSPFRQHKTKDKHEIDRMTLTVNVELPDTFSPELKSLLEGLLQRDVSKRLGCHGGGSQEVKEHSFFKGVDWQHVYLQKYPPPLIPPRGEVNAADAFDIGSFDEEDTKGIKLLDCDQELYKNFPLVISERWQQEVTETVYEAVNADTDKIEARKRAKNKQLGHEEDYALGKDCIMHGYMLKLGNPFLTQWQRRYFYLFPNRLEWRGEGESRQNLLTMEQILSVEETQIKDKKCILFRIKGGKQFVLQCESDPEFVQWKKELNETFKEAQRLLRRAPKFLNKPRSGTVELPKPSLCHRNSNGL

EPHB6 = EPHB6 (Homo sapiens (Human), UniProt O15197)
ABL2 = ABL2 (Homo sapiens (Human), UniProt P42684)
MYLK = MYLK (Homo sapiens (Human), UniProt Q15746)
ERK2 = ERK2 (Homo sapiens (Human), UniProt P28482)
DDR1 = DDR1 (Homo sapiens (Human), UniProt Q08345)
PRKD1 = PRKD1 (Homo sapiens (Human), UniProt Q15139)
FAK = FAK (Homo sapiens (Human), UniProt Q05397)
DCAMKL3 = DCAMKL3 (Homo sapiens (Human), UniProt Q9C098)
PRKR = PRKR (Homo sapiens (Human), UniProt P19525)
VRK2 = VRK2 (Homo sapiens (Human), UniProt Q86Y07)
MLK1 = MLK1 (Homo sapiens (Human), UniProt P80192)
MET(Y1235D) = MET(Y1235D) (Homo sapiens (Human), UniProt P08581, Y1235D)
WNK4 = WNK4 (Homo sapiens (Human), UniProt Q96J92)
Chain of WNK4 (Q96J92 whole entry): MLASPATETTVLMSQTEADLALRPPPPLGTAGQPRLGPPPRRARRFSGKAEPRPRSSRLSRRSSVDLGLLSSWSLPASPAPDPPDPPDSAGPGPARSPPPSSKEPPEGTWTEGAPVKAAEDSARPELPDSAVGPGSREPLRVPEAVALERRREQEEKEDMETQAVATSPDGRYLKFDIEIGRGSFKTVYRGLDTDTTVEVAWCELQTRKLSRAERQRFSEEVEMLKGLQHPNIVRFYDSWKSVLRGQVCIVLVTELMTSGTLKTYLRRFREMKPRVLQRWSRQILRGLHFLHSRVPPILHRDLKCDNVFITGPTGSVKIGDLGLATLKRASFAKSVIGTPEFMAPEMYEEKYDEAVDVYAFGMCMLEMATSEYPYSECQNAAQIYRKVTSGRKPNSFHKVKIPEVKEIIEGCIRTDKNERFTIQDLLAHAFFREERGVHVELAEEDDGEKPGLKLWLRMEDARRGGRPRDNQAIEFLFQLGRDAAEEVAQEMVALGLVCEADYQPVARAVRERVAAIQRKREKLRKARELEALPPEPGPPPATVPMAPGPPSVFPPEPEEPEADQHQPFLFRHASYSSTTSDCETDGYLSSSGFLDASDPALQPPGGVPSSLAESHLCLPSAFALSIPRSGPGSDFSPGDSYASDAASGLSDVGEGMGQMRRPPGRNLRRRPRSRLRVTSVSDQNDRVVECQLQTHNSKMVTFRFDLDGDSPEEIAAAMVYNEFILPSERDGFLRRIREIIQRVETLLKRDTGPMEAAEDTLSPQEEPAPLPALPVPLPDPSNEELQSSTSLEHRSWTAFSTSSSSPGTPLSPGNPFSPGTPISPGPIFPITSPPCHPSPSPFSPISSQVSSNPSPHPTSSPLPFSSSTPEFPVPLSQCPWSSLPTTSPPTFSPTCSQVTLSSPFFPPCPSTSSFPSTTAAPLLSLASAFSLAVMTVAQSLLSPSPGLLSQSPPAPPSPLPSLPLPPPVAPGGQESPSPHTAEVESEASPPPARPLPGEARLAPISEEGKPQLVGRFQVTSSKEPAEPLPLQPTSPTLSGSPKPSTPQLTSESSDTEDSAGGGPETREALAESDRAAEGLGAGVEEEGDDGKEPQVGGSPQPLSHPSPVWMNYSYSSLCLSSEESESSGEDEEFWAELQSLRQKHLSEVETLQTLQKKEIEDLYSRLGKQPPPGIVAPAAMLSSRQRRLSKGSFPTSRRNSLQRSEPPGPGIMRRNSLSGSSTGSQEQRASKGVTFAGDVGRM

p38-gamma = p38-gamma (Homo sapiens (Human), UniProt P53778)
PAK1 = PAK1 (Homo sapiens (Human), UniProt Q13153)
ICK = ICK (Homo sapiens (Human), UniProt Q9UPZ9)
AURKC = AURKC (Homo sapiens (Human), UniProt Q9UQB9)
Chain of AURKC (Q9UQB9 whole entry): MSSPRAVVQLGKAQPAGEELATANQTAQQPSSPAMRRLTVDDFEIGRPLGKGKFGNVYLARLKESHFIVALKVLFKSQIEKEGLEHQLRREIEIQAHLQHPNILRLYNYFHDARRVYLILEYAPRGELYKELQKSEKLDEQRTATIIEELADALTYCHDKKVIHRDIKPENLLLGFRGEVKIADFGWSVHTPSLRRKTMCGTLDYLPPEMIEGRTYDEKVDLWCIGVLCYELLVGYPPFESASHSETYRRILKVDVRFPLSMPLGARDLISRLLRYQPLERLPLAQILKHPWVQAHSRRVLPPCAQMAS

BRSK1 = BRSK1 (Homo sapiens (Human), UniProt Q8TDC3)
[1] = target: ABL1(H396P)-phosphorylated (Homo sapiens (Human), UniProt P00519, H396P)
FGR = FGR (Homo sapiens (Human), UniProt P09769)
PIK3C2B = PIK3C2B (Homo sapiens (Human), UniProt O00750)
Chain of PIK3C2B (O00750 whole entry): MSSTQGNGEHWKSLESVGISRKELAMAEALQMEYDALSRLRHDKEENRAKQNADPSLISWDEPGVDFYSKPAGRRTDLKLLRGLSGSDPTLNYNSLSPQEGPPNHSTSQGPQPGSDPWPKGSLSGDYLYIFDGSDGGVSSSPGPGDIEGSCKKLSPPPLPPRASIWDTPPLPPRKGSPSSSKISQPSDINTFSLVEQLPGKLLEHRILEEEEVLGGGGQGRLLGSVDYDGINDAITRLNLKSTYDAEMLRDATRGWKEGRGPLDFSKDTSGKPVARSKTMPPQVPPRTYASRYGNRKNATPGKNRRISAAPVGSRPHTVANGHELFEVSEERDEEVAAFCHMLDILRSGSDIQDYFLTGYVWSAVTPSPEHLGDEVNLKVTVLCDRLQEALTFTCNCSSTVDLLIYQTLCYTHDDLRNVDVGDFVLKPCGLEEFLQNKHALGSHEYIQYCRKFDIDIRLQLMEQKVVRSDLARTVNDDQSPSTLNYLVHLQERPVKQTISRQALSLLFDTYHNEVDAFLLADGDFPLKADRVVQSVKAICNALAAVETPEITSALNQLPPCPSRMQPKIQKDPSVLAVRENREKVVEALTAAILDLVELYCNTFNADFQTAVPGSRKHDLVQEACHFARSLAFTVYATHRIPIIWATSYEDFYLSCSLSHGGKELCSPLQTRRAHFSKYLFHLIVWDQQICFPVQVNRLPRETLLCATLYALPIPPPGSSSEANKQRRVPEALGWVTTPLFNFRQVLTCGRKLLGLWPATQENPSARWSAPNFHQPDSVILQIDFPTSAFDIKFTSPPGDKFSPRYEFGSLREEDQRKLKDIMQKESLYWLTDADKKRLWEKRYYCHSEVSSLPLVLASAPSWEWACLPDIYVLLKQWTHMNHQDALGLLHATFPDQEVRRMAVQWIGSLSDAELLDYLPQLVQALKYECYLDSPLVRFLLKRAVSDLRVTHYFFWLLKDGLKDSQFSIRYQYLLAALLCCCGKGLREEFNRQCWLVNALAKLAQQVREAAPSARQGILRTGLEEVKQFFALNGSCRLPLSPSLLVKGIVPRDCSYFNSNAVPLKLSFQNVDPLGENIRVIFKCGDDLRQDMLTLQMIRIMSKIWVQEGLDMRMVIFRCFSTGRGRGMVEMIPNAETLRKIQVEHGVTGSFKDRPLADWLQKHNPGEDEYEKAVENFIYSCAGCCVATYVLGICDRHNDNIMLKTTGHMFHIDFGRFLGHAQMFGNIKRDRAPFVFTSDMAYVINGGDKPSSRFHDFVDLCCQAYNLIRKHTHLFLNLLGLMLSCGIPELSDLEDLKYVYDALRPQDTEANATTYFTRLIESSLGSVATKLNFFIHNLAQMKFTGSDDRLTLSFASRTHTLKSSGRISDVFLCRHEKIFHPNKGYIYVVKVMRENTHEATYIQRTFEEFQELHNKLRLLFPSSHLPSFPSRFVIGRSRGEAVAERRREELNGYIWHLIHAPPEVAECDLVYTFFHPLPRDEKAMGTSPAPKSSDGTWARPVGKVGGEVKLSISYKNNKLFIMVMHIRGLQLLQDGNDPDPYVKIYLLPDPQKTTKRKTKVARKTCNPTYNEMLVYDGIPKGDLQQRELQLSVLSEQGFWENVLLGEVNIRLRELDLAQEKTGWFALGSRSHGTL

MEK6 = MEK6 (Homo sapiens (Human), UniProt P52564)
Chain of MEK6 (P52564 whole entry): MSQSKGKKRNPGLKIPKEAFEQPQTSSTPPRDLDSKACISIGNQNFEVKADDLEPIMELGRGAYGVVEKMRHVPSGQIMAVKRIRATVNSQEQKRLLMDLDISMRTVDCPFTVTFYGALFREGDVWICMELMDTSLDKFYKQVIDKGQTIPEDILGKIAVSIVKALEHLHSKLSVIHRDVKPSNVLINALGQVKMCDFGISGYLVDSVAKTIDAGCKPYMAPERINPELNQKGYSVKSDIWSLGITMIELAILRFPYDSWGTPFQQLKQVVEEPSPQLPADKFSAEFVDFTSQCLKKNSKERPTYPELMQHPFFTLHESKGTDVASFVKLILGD

CAMK1G = CAMK1G (Homo sapiens (Human), UniProt Q96NX5)

## CN(C[C@@H](O)Cc1ccccc1)C(=O)c1cncc(C#Cc2cnn(C(F)F)c2)c1 [Example 2, (S)-5-((1-(difluoromethyl)-1H-pyrazol-4-yl)ethynyl)-N-(2-hydroxy-3-phenylpropyl)-N-methylnicotinamide]
PIK3CA(E542K); PIK3CA(E542K)
  remaining activity at 0.1 µM: 89%
MEK2; MEK2
  remaining activity at 0.1 µM: 99%
FLT1; FLT1
  remaining activity at 0.1 µM: 100%
TEC; TEC
  remaining activity at 0.1 µM: 99%
TNK1; TNK1
  remaining activity at 0.1 µM: 100%
GRK3; GRK3
  remaining activity at 0.1 µM: 82%
EPHB6; EPHB6
  remaining activity at 0.1 µM: 100%
ABL2; ABL2
  remaining activity at 0.1 µM: 100%
MYLK; MYLK
  remaining activity at 0.1 µM: 87%
ERK2; ERK2
  remaining activity at 0.1 µM: 100%
DDR1; DDR1
  remaining activity at 0.1 µM: 100%
PRKD1; PRKD1
  remaining activity at 0.1 µM: 100%
FAK; FAK
  remaining activity at 0.1 µM: 100%
DCAMKL3; DCAMKL3
  remaining activity at 0.1 µM: 100%
PRKR; PRKR
  remaining activity at 0.1 µM: 100%
VRK2; VRK2
  remaining activity at 0.1 µM: 91%
MLK1; MLK1
  remaining activity at 0.1 µM: 100%
MET(Y1235D); MET(Y1235D)
  remaining activity at 0.1 µM: 98%
WNK4; WNK4
  remaining activity at 0.1 µM: 84%
p38-gamma; p38-gamma
  remaining activity at 0.1 µM: 100%
PAK1; PAK1
  remaining activity at 0.1 µM: 100%
ICK; ICK
  remaining activity at 0.1 µM: 100%
AURKC; AURKC
  remaining activity at 0.1 µM: 100%
BRSK1; BRSK1
  remaining activity at 0.1 µM: 99%
[1]; ABL1(H396P)-phosphorylated
  remaining activity at 0.1 µM: 94%
FGR; FGR
  remaining activity at 0.1 µM: 100%
PIK3C2B; PIK3C2B
  remaining activity at 0.1 µM: 100%
MEK6; MEK6
  remaining activity at 0.1 µM: 100%
CAMK1G; CAMK1G
  remaining activity at 0.1 µM: 93%

## CN(C[C@H](Cc1ccccc1)OP(=O)(O)O)C(=O)c1cncc(C#Cc2cnn(C(F)F)c2)c1 [Example 19, (S)-1-(5-((1-(difluoromethyl)-1H-pyrazol-4-yl)ethynyl)-N-methylnicotinamido)-3-phenylpropan-2-yl dihydrogen phosphate]
PIK3CA(E542K)
  remaining activity at 0.1 µM: 81%
MEK2
  remaining activity at 0.1 µM: 98%
FLT1
  remaining activity at 0.1 µM: 100%
TEC
  remaining activity at 0.1 µM: 93%
TNK1
  remaining activity at 0.1 µM: 100%
GRK3
  remaining activity at 0.1 µM: 81%
EPHB6
  remaining activity at 0.1 µM: 100%
ABL2
  remaining activity at 0.1 µM: 98%
MYLK
  remaining activity at 0.1 µM: 86%
ERK2
  remaining activity at 0.1 µM: 100%
DDR1
  remaining activity at 0.1 µM: 100%
PRKD1
  remaining activity at 0.1 µM: 100%
FAK
  remaining activity at 0.1 µM: 100%
DCAMKL3
  remaining activity at 0.1 µM: 100%
PRKR
  remaining activity at 0.1 µM: 97%
VRK2
  remaining activity at 0.1 µM: 95%
MLK1
  remaining activity at 0.1 µM: 96%
MET(Y1235D)
  remaining activity at 0.1 µM: 99%
WNK4
  remaining activity at 0.1 µM: 81%
p38-gamma
  remaining activity at 0.1 µM: 88%
PAK1
  remaining activity at 0.1 µM: 100%
ICK
  remaining activity at 0.1 µM: 93%
AURKC
  remaining activity at 0.1 µM: 100%
BRSK1
  remaining activity at 0.1 µM: 99%
[1]
  remaining activity at 0.1 µM: 93%
FGR
  remaining activity at 0.1 µM: 99%
PIK3C2B
  remaining activity at 0.1 µM: 100%
MEK6
  remaining activity at 0.1 µM: 96%
CAMK1G
  remaining activity at 0.1 µM: 100%
